These results are taken from patent publication US7576095B2, “Therapeutic agents” (Astrazeneca AB, priority 2005, dated 2009).

Data set [1] deals with T1, CB1 receptor (Homo sapiens, UniProt P21554).
T1 construct: expressed in transfected cells
The experiment in a line: [35S]-GTPγS binding assay, membranes of cells stably transfected with the CB1 gene, inhibition of agonist CP55940 (EC80). To be noted: half maximal inhibition of GTPγS binding; EC80 concentration of CP55940. It is filed as biochemical. Here is the method: Compounds of the present invention are active against the receptor product of the CB1 gene. The affinity of the compounds of the invention for central cannabinoid receptors is demonstrable in methods described in Devane et al , Molecular Pharmacology, 1988, 34,605 or those described in WO01/70700 or EP 656354. Alternatively the assay may be performed as follows.
10 μg of membranes prepared from cells stably transfected with the CB1 gene were suspended in 200 μl of 100 mM NaCl, 5 mM MgCl2, 1 mM EDTA, 50 mM HEPES (pH 7.4), 1 mM DTT, 0.1% BSA and 100 μM GDP. To this was added an EC80 concentration of agonist (CP55940), the required concentration of test compound and 0.1 μCi [^35S]-GTPγS. The reaction was allowed to proceed at 30° C. for 45 min. […] Filters were then covered with scintilant and counted for the amount of [^35S]-GTPγS retained by the filter.
Activity is measured in the absence of all ligands (minimum activity) or in the presence of an EC80 concentration of CP55940 (maximum activity). […] At various concentrations of novel ligand, activity is calculated as a percentage of the maximum activity and plotted. The data are fitted using the equation y=A+((B-A)/1+((C/x) UD)) and the IC50 value determined as the concentration required to give half maximal inhibition of GTPγS binding under the conditions used.
In general terms: GTPγS resists hydrolysis and so accumulates on activated G proteins.

A short description of data set [2]: Solubility in dimethyl sulfoxide. Type of data set: physicochemical. From the text:
The compounds of the present invention have improved solubility in organic solvents compared to compounds in the prior art. […] It would be expected that this increase in solubility in organic solvents would lead to improvements in bioavailability and ease of manufacture and formulation.

Each structure is given as a SMILES string.

T1 sequence (P21554 whole entry): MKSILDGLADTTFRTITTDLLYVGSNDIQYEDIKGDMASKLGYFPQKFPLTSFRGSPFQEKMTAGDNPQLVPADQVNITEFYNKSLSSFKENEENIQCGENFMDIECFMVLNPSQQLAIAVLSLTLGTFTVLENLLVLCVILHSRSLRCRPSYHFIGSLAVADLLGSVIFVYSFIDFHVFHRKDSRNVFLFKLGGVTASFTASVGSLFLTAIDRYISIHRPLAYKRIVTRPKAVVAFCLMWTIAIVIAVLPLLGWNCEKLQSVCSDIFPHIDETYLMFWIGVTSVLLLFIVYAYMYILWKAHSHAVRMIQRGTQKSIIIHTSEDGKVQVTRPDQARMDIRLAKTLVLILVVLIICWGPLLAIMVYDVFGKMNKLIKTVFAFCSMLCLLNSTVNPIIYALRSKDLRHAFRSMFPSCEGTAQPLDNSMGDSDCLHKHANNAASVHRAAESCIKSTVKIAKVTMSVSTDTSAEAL

For orientation: IC50 means the concentration that gives 50% inhibition. A lower IC50 goes with inhibition by little substance. The molecule `Cc1c2c(n(-c3ccccc3Cl)c1-c1ccc(OS(=O)(=O)CCC(F)(F)F)cc1)CCN(N1CCCCC1)C2=O` [Example 1, 3,3,3-Trifluoropropane-1-sulfonic acid 4-[1-(2-chlorophenyl)-3-methyl-4-oxo-5-piperidin-1-yl-4,5,6,7-tetrahydro-1H-pyrrolo[3,2-c]pyridine-2-yl]phenyl ester] gave an IC50 in data set [1] of 0.98 nM.

Consider `Cc1c2c(n(-c3ccc(Cl)cc3Cl)c1-c1ccc(Cl)cc1)CCN(N1CCCCC1)C2=O` [Example 19 of WO03/027114, 2-(4-chlorophenyl)-1-(2,4-dichlorophenyl)-3-methyl-5-(1-piperidinyl)-1,5,6,7-tetrahydro-4H-pyrrolo-[3,2-c]pyridin-4-one], for which the “solubility in dimethyl sulfoxide” value in data set [2] is recorded as “insoluble”.
